Measurements reported in patent publication US9290529B2, “Carbonic anhydrase inhibitors and method of their production” (USTAV ORGANICKE CHEMIE A BIOCHEMIE AKADEMIE VED CESKE …, priority 2011, dated 2016).

Legend:
K562 = test: MTT cytotoxicity assay, K562; format: cell-based, human; conditions: 72 h
Source text: (§1) One of the parameters used as the basis for colorimetric assays is the metabolic activity of viable cells. For example, a microtiter assay which uses the tetrazolium salt MTT is now widely used to quantitate cell proliferation and cytotoxicity (Hájduch et al., Cytotechnology, 19, 1996, 243-245). For instance, this assay is used in drug screening programs and in chemosensitivity testing. Because tetrazolium salts are cleaved only by metabolically active cells, these assays exclusively detect viable cells. In the case of the MTT assay, yellow soluble tetrazolium salt is reduced to a coloured water-insoluble formazan salt. After it is solubilized, the formazan formed can easily and rapidly be quantified in a conventional ELISA plate reader at 570 nm (maximum absorbancy). The quantity of reduced formazan corresponds to the number of vital cells in the culture.
(§2) All cells were purchased from the […] (ATCC), unless otherwise indicated: the CEM line are highly chemosensitive T-lymphoblastic leukemia cells, K562 cells were derived from patient with […] with bcr-abl translocation, A549 line is lung adenocarcinoma, HCT116 is colorectal tumor cell line and its p53 gene knock-down counterpart (HCT116p53−) is a model of human cancers with p53 mutation frequently associated with poor prognosis. The daunorubicin resistant subline of CEM cells (CEM-DNR bulk) and paclitaxel resistant subline K562-tax were selected in our laboratory by the cultivation of maternal cell lines in increasing concentrations of daunorubicine or paclitaxel, respectively (Noskova et al., Neoplasma 49, 2002, 418). The CEM-DNR bulk cells overexpress MRP-1 protein, while K562-tax cells overexpress P-glycoprotein, both proteins belong to family of ABC transporters and are involved in primary and/or acquired multidrug resistance phenomenon (Noskova et al., Neoplasma 49, 2002, 418). The cells were maintained in Nunc/Corning 80 cm^2 plastic tissue culture flasks and cultured in cell culture medium (DMEM/RPMI 1640 with 5 g/l glucose, 2 mM glutamine, 100 U/ml penicillin, 100 μg/ml streptomycin, 10% fetal calf serum, and NaHCO3).
(§3) This assay was performed according to Hajduch et al., Anti-Cancer Drugs 10, 1997, 1007. Cell suspensions were prepared and diluted according to the particular cell type and the expected target cell density (2 500-30 000 cells/well based on cell growth characteristics). Cells were added by pipette (80 μl) into 96-well microtiter plates. Inoculates were allowed a pre-incubation period of 24 h at 37° C. and 5% CO2 for stabilization. Four-fold dilutions, in 20-μl aliquots, of the intended test concentration were added to the microtiter plate wells at time zero. All test compound concentrations were examined in duplicate. Incubation of the cells with the test compounds lasted for 72 h at 37° C., in a 5% CO2 atmosphere at 100% humidity. At the end of the incubation period, the cells were assayed using MTT. Aliquots (10 μl) of the MTT stock solution were pipetted into each well and incubated for a further 1-4 h. After this incubation period the formazan produced was dissolved by the addition of 100 μl/well of 10% aq SDS (pH=5.5), followed by a further incubation at 37° C. overnight. The optical density (OD) was measured at 540 nm with a Labsystem iEMS Reader MF. Tumor cell survival (TCS) was calculated using the following equation: TCS=(ODdrug-exposed well/mean ODcontrol wells)×100%. The TCS50 value, the drug concentration lethal to 50% of the tumor cells, was calculated from appropriate dose-response curves.

CCRF-CEM = test: MTT cytotoxicity assay, CCRF-CEM; format: cell-based, human; conditions: 72 h
Source text: as §1, §2, §3

CEM-DNR = test: MTT cytotoxicity assay, CEM-DNR; format: cell-based, human; conditions: 72 h
Source text: as §1, §2, §3

HCT116p53−/− = test: MTT cytotoxicity assay, HCT116p53−/−; format: cell-based, human; conditions: 72 h
Source text: as §1, §2, §3

NMRI female mice = test: Dose finding study (MTD, DLT), single intraperitoneal dose; conditions: for dose limiting toxicity (DLT): mouse, in vivo, ip; for maximum tolerated dose (MTD): single dose, intraperitoneally, NMRI female mice
Procedure: Both compounds were dissolved in 10% dimethylsulfoxide/water (vol/vol) at stock concentration of 10 mg/ml and applied intraperitoneally to NMRI female mice (minimum 3/group) in ascending doses until the MTD was reached. Animals were housed in specific pathogen free conditions, water and food ad libitum.

[1] = Orientational pharmacokinetics, serum concentrations by HPLC; conditions: intraperitoneally at the MTD, female NMRI mice
Procedure: The ability of compounds to achieve therapeutically relevant concentrations in biological fluids was tested in orientational pharmacokinetics experiment. […] The blood was collected on ice and processed for serum separation within 60 minutes after sampling. Serum was evaporated to dryness on a device ThermoScientific SPD SpeedVac (72 h, 50° C.) until analyzed. Residues were precipitated by the 225 μl of acetonitrile with an addition of 25 μl of 10% SDS (w/w in water), then vortexed for 5 min and centrifuged 5 min at 14000 RPM at a room temperature. Aliquot of the supernatant was transferred into a 250 μl autosampler vial. […] Sensitivity range 0.2 or 0.02 A.U.F.S. (Absorbance Units Full Scale). An Ion-pair reverse phase chromatographic method with an isocratic elution 300 μl/min was used. Sample injection: 20 μl.

Substance: 1-methylenesulfamide-1,7-dicarba-closo-dodecaborane [CB-19]
- IC50 (K562): 81 ± 3.3 µM
- IC50 (CCRF-CEM): 71.9 ± 3.7 µM
- IC50 (CEM-DNR): 100 ± 0.1 µM
- IC50 (HCT116p53−/−): 78.3 ± 6.5 µM

Substance: 1-methylenesulfamide-3,3′-commo-bis(1,2-dicarba-3-cobalta(III)-closo-dodecabor)ate (1-) [CB-5]
- IC50 (CCRF-CEM): 85.4 ± 22.6 µM
- IC50 (HCT116p53−/−): 64.7 ± 9.1 µM

Substance: 1-methylenesulfamide-9-phenyl-1,2-dicarba-closo-dodecaborane and 1-methylene-sulfamide-12-phenyl-1,2-dicarba-closo-dodecaborane [CB-8]
- IC50 (K562): 71.3 ± 4.2 µM
- IC50 (CCRF-CEM): 73.4 ± 6.8 µM
- IC50 (CEM-DNR): 96.8 ± 3.3 µM
- IC50 (HCT116p53−/−): 86.6 ± 7.5 µM

Substance: 1-methylensulfamide-1,2-dicarba-closo-dodekaborane [CB-1]
- IC50 (K562): 60.1 ± 3 µM
- IC50 (CCRF-CEM): 61.8 ± 10.6 µM
- IC50 (CEM-DNR): 79 ± 8.9 µM
- IC50 (HCT116p53−/−): 62 ± 2.7 µM

Substance: 1-sulfamide-closo-1-carbadodecaborate (1-) [CB-3]
- IC50 (K562): ≥ 100 µM
- IC50 (CCRF-CEM): ≥ 100 µM
- IC50 (HCT116p53−/−): ≥ 100 µM

Substance: 7-methylensulfamide-8-phenyl-(7,8-nido-dikarbaundekabor)ate (1-) [CB-6]
- IC50 (K562): 27.5 ± 7.1 µM
- IC50 (CCRF-CEM): 20.2 ± 1.7 µM
- IC50 (CEM-DNR): 98.1 ± 3 µM
- IC50 (HCT116p53−/−): 24.2 ± 3.2 µM

Substance: 7-methylensulfamide-(7,8-nido-dicarbaundekaborate) (1-) [CB-2]
- IC50 (K562): ≥ 100 µM
- IC50 (CEM-DNR): 96.7 ± 3.8 µM

Substance: 8-butyloxysulfamide-3,3′-commo-bis(decahydro-1,2-dicarba-3-cobalta(III)-closo-dodekabor)ate (1-) [CB-16]
- dose limiting toxicity (DLT) (NMRI female mice): somnolence, apathy and local irritation
- maximum tolerated dose (MTD) (NMRI female mice): 166 mg/kg
- IC50 (CCRF-CEM): 89.9 ± 6 µM
- T1/2 [1]: 5 h
- pharmacokinetics under in vivo conditions [1]: linear pharmacokinetics
- IC50 (CEM-DNR): 95.1 ± 7.9 µM
- IC50 (HCT116p53−/−): 78.4 ± 3.9 µM

Substance: 8-diethyleneoxysulfamide-3,3′-commo-bis(decahydro-1,2-dicarba-3-cobalta(III)-closo-dodekabor)ate (1-) [CB-17]
- IC50 (K562): ≥ 100 µM
- IC50 (CCRF-CEM): 95.1 ± 5 µM
- IC50 (CEM-DNR): ≥ 100 µM
- IC50 (HCT116p53−/−): ≥ 100 µM

Substance: 8-ethylaminomethylsulfamide-8″-methoxy-3,3′-commo-bis(decahydro-1,2-dicarba-3-cobalta(III)-closo-dodecabor)ate (1-) [CB-15]
- IC50 (K562): 17.7 ± 0.7 µM
- IC50 (CCRF-CEM): 17.3 ± 1.2 µM
- IC50 (CEM-DNR): 47.9 ± 7.6 µM
- IC50 (HCT116p53−/−): 17.6 ± 0.9 µM

Substance: 8-methylensulfamide-8″-methoxy-3,3′-commo-bis(1,2-dicarba-3-cobalta(III)-closo-dodecabor)ate (1-) [CB-4]
- dose limiting toxicity (DLT) (NMRI female mice): somnolence, apathy and local irritation
- maximum tolerated dose (MTD) (NMRI female mice): 125 mg/kg
- IC50 (K562): 74.3 ± 3.7 µM
- IC50 (CCRF-CEM): 61.7 ± 17.8 µM
- T1/2 [1]: 6.5 h
- pharmacokinetics under in vivo conditions [1]: linear pharmacokinetics
- IC50 (CEM-DNR): 74.5 ± 2.8 µM
- IC50 (HCT116p53−/−): 71.9 ± 3.4 µM

Substance: 8-propylenesulfamide-7-phenyl-(7,8-nido-dicarbaundecabor)ate (1-) [CB-13]
- IC50 (K562): 71.8 ± 1.4 µM
- IC50 (CCRF-CEM): 62 ± 3 µM
- IC50 (CEM-DNR): 68 ± 1.6 µM
- IC50 (HCT116p53−/−): 61.3 ± 4.9 µM

Substance: 9-sulfamide-9′-amine-2,2′-commo-bis(1,7,9-trikarba-2-ferra(II)-kloso-dodekabor)ane [CB-12]
- IC50 (K562): ≥ 100 µM
- IC50 (CCRF-CEM): ≥ 100 µM
- IC50 (CEM-DNR): ≥ 100 µM
- IC50 (HCT116p53−/−): ≥ 100 µM

Substance: 10-sulfamide-9′-amine-2,2′-commo-(1,7,10-tricarba-1′,7′,9′-tricarba-2-ferra (II)-closo-dodekabor)ane [CB-10]
- IC50 (CCRF-CEM): 79.5 ± 22.7 µM
- IC50 (CEM-DNR): ≥ 100 µM

Substance: Di(methylenesulfamide)-1,7-dicarba-closo-dodecaborane [CB-20]
- IC50 (CCRF-CEM): 84.5 ± 5.3 µM
- IC50 (HCT116p53−/−): ≥ 100 µM
